{
  "source": "patent US10618918B2",
  "about": "“Substituted boronic acids as antimicrobials” (priority 2015, dated 2020)",
  "key": {"KP1086 OXA-48": {"system": "KP1086 OXA-48", "experiment": "Biapenem potentiation (MPC@1), strain KP1086 OXA-48", "format": "cell-based", "details": "minimum BLI concentration inhibiting growth with biapenem 1 μg/mL; tested up to 40 μg/mL", "experimental": "(§1) Biapenem was present in the test medium at 1 μg/mL. […] Table 3 summarizes the BLI potency of biapenem potentiation (MPC@1) for two strains overexpressing class A (KPC) and class D (OXA-48) carbapenemases. Biapenem MIC for each strain is also shown."}, "KP1004 KPC-2 [1]": {"system": "KP1004 KPC-2", "experiment": "Aztreonam potentiation (MPC@4), strain KP1004 KPC-2", "details": "minimum BLI concentration inhibiting growth with aztreonam 4 μg/mL; tested up to 40 μg/mL"}, "ec302 TEM-10 [2]": {"system": "ec302 TEM-10", "experiment": "Tigemonam potentiation (MPC@4), strain ec302 TEM-10", "format": "cell-based", "details": "minimum BLI concentration inhibiting growth with tigemonam 4 μg/mL; tested up to 40 μg/mL"}, "ECL1002 [3]": {"system": "ECL1002", "experiment": "Aztreonam potentiation (MPC@4), strain ECL1002", "details": "minimum BLI concentration inhibiting growth with aztreonam 4 μg/mL; tested up to 40 μg/mL"}, "KP1005 CTX-M-14 [4]": {"system": "KP1005 CTX-M-14", "experiment": "Aztreonam potentiation (MPC@4), strain KP1005 CTX-M-14", "details": "minimum BLI concentration inhibiting growth with aztreonam 4 μg/mL; tested up to 40 μg/mL"}, "KP1009 CTX-M-15 [5]": {"system": "KP1009 CTX-M-15", "experiment": "Tigemonam potentiation (MPC@4), strain KP1009 CTX-M-15", "details": "minimum BLI concentration inhibiting growth with tigemonam 4 μg/mL; tested up to 40 μg/mL"}, "[6]": {"biological_target": "purified class A, C and D enzymes (β-lactamases) (Escherichia coli, UniProt Q9L5C7)", "sequence (Q9L5C7 entry or part of it)": "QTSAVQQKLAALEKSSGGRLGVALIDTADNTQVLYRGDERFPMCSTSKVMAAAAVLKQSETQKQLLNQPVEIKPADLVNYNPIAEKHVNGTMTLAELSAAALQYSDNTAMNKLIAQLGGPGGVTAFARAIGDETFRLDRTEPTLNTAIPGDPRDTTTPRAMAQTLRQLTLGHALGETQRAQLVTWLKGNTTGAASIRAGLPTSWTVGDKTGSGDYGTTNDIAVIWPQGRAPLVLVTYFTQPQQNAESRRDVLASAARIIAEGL", "experiment": "biochemical", "format": "biochemical", "details": "purified CTX-M-14; nitrocefin (NCF) as reporter substrate"}, "[7]": {"biological_target": "T1, purified class A, C and D enzymes (β-lactamases) (UniProt P0AD64, L31Q/G234S/E235K, species not given)", "T1 construct": "Ki (SHV-12, NCF), uM; other: purified SHV-12; nitrocefin (NCF) as reporter substrate", "T1 sequence (P0AD64 1-286 L31Q/G234S/E235K)": "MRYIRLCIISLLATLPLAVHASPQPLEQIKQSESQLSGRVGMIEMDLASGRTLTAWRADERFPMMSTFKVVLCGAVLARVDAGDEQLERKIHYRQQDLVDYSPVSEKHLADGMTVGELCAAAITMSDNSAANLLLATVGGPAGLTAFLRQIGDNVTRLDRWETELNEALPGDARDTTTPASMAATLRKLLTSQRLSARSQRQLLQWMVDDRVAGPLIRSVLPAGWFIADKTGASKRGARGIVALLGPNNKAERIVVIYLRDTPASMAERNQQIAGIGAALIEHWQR", "experiment": "biochemical", "format": "biochemical", "details": "purified SHV-12; nitrocefin (NCF) as reporter substrate; read-out: Ki (SHV-12, NCF)"}, "[8]": {"biological_target": "purified class A, C and D enzymes (β-lactamases) (UniProt P62593, R162S/E237K, species not given)", "experiment": "biochemical", "format": "biochemical", "details": "purified TEM-10; nitrocefin (NCF) as reporter substrate"}, "[9]": {"biological_target": "purified class A, C and D enzymes (β-lactamases) (Klebsiella pneumoniae, UniProt Q6XEC0)", "experiment": "biochemical", "format": "biochemical", "details": "purified OXA-48; nitrocefin (NCF) as reporter substrate"}, "[10]": {"biological_target": "purified class A, C and D enzymes (β-lactamases) (Klebsiella pneumoniae, UniProt Q9F663)", "experiment": "biochemical", "format": "biochemical", "details": "purified KPC-2; nitrocefin (NCF) as reporter substrate"}, "[11]": {"biological_target": "T2, purified class A, C and D enzymes (β-lactamases) (Acinetobacter baumannii, UniProt Q9L4P2)", "T2 construct": "rows headed: Ki (OXA-23, NCF), uM; other: purified OXA-23; nitrocefin (NCF) as reporter substrate", "T2 sequence (Q9L4P2 whole entry)": "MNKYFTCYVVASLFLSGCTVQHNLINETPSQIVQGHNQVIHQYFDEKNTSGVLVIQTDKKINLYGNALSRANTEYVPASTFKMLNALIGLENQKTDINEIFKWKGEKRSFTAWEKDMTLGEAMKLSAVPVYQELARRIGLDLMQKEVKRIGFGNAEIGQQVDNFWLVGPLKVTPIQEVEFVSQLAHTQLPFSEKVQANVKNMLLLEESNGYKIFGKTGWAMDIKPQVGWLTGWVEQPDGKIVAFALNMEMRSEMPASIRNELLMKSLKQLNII", "experiment": "biochemical", "format": "biochemical", "details": "purified OXA-23; nitrocefin (NCF) as reporter substrate"}, "ECL1002 [12]": {"system": "ECL1002", "experiment": "Tigemonam potentiation (MPC@4), strain ECL1002", "format": "cell-based", "details": "minimum BLI concentration inhibiting growth with tigemonam 4 μg/mL; tested up to 40 μg/mL"}, "EC1010 CMY-6 [13]": {"system": "EC1010 CMY-6", "experiment": "Tigemonam potentiation (MPC@4), strain EC1010 CMY-6", "format": "cell-based", "details": "minimum BLI concentration inhibiting growth with tigemonam 4 μg/mL; tested up to 40 μg/mL"}, "AB1053 OXA-72": {"system": "AB1053 OXA-72", "experiment": "Meropenem potentiation (MPC@8), strain AB1053 OXA-72", "format": "cell-based, Acinetobacter baumannii", "details": "minimum BLI concentration inhibiting growth with meropenem 8 μg/mL; tested up to 20 μg/mL"}, "ec308 SHV-5 [14]": {"system": "ec308 SHV-5", "experiment": "Tigemonam potentiation (MPC@4), strain ec308 SHV-5", "format": "cell-based", "details": "minimum BLI concentration inhibiting growth with tigemonam 4 μg/mL; tested up to 40 μg/mL"}, "EC1010 CMY-6 [15]": {"system": "EC1010 CMY-6", "experiment": "Aztreonam potentiation (MPC@4), strain EC1010 CMY-6", "details": "minimum BLI concentration inhibiting growth with aztreonam 4 μg/mL; tested up to 40 μg/mL"}, "KP1005 CTX-M-14 [16]": {"system": "KP1005 CTX-M-14", "experiment": "Tigemonam potentiation (MPC@4), strain KP1005 CTX-M-14", "details": "minimum BLI concentration inhibiting growth with tigemonam 4 μg/mL; tested up to 40 μg/mL"}, "ec302 TEM-10 [17]": {"system": "ec302 TEM-10", "experiment": "Aztreonam potentiation (MPC@4), strain ec302 TEM-10", "details": "minimum BLI concentration inhibiting growth with aztreonam 4 μg/mL; tested up to 40 μg/mL"}, "AB1054 OXA-23": {"system": "AB1054 OXA-23", "experiment": "Meropenem potentiation (MPC@8), strain AB1054 OXA-23", "format": "cell-based, Acinetobacter baumannii", "details": "minimum BLI concentration inhibiting growth with meropenem 8 μg/mL; tested up to 20 μg/mL"}, "KP1009 CTX-M-15 [18]": {"system": "KP1009 CTX-M-15", "experiment": "Aztreonam potentiation (MPC@4), strain KP1009 CTX-M-15", "details": "minimum BLI concentration inhibiting growth with aztreonam 4 μg/mL; tested up to 40 μg/mL"}, "KP1010 SHV-12 [19]": {"system": "KP1010 SHV-12", "experiment": "Aztreonam potentiation (MPC@4), strain KP1010 SHV-12", "details": "minimum BLI concentration inhibiting growth with aztreonam 4 μg/mL; tested up to 40 μg/mL"}, "KP1010 SHV-12 [20]": {"system": "KP1010 SHV-12", "experiment": "Tigemonam potentiation (MPC@4), strain KP1010 SHV-12", "details": "minimum BLI concentration inhibiting growth with tigemonam 4 μg/mL; tested up to 40 μg/mL"}, "ec308 SHV-5 [21]": {"system": "ec308 SHV-5", "experiment": "Aztreonam potentiation (MPC@4), strain ec308 SHV-5", "details": "minimum BLI concentration inhibiting growth with aztreonam 4 μg/mL; tested up to 40 μg/mL"}, "KP1004 KPC-2 [22]": {"system": "KP1004 KPC-2", "experiment": "Biapenem potentiation (MPC@1), strain KP1004 KPC-2", "format": "cell-based", "details": "minimum BLI concentration inhibiting growth with biapenem 1 μg/mL; tested up to 40 μg/mL", "experimental": "as §1"}},
  "data": [
    {"substance": "Disodium; 4,4-dihydroxy-8-(1H-triazol-4-ylmethoxy)-5-oxa-4-boranuidabicyclo[4.4.0]deca-1(6),7,9-triene-7-carboxylate [Compound 24]", "values": [
      {"measurement": "BPM MPC1 OXA-48 KP1086", "setting": "KP1086 OXA-48", "value": "X (X = MPC@1 ≤ 5 μg/mL)"},
      {"measurement": "AZT MPC4 KPC-2 KP1004", "setting": "KP1004 KPC-2 [1]", "value": "X (X = MPC@4 ≤ 5 μg/mL)"},
      {"measurement": "TIG MPC4 TEM-10 ec302", "setting": "ec302 TEM-10 [2]", "value": "X (X = MPC@4 ≤ 5 μg/mL)"},
      {"measurement": "AZT MPC4 ECL1002", "setting": "ECL1002 [3]", "value": "X (X = MPC@4 ≤ 5 μg/mL)"},
      {"measurement": "AZT MPC4 CTX-M-14 KP1005", "setting": "KP1005 CTX-M-14 [4]", "value": "X (X = MPC@4 ≤ 5 μg/mL)"},
      {"measurement": "TIG MPC4 CTX-M-15 KP1009", "setting": "KP1009 CTX-M-15 [5]", "value": "X (X = MPC@4 ≤ 5 μg/mL)"},
      {"measurement": "Ki", "setting": "[6]", "value": "< 100", "unit": "nM"},
      {"measurement": "Ki", "setting": "[7]", "value": "< 100", "unit": "nM"},
      {"measurement": "Ki", "setting": "[8]", "value": "< 100", "unit": "nM"},
      {"measurement": "Ki", "setting": "[9]", "value": "< 100", "unit": "nM"},
      {"measurement": "Ki", "setting": "[10]", "value": "< 100", "unit": "nM"},
      {"measurement": "Ki", "setting": "[11]", "value": "< 100", "unit": "nM"},
      {"measurement": "TIG MPC4 ECL1002", "setting": "ECL1002 [12]", "value": "X (X = MPC@4 ≤ 5 μg/mL)"},
      {"measurement": "TIG MPC4 CMY-6 EC1010", "setting": "EC1010 CMY-6 [13]", "value": "X (X = MPC@4 ≤ 5 μg/mL)"},
      {"measurement": "MPM MPC8 AB1053 OXA-72", "setting": "AB1053 OXA-72", "value": "X (X = MPC@1 ≤ 5 μg/mL)"},
      {"measurement": "TIG MPC4 SHV-5 ec308", "setting": "ec308 SHV-5 [14]", "value": "X (X = MPC@4 ≤ 5 μg/mL)"},
      {"measurement": "AZT MPC4 CMY-6 EC1010", "setting": "EC1010 CMY-6 [15]", "value": "X (X = MPC@4 ≤ 5 μg/mL)"},
      {"measurement": "TIG MPC4 CTX-M-14 KP1005", "setting": "KP1005 CTX-M-14 [16]", "value": "Z (Z = MPC@4 > 20 μg/mL)"},
      {"measurement": "AZT MPC4 TEM-10 ec302", "setting": "ec302 TEM-10 [17]", "value": "X (X = MPC@4 ≤ 5 μg/mL)"},
      {"measurement": "MPM MPC8 AB1054 OXA-23", "setting": "AB1054 OXA-23", "value": "X (X = MPC@1 ≤ 5 μg/mL)"},
      {"measurement": "AZT MPC4 CTX-M-15 KP1009", "setting": "KP1009 CTX-M-15 [18]", "value": "X (X = MPC@4 ≤ 5 μg/mL)"},
      {"measurement": "AZT MPC4 SHV-12 KP1010", "setting": "KP1010 SHV-12 [19]", "value": "X (X = MPC@4 ≤ 5 μg/mL)"},
      {"measurement": "TIG MPC4 SHV-12 KP1010", "setting": "KP1010 SHV-12 [20]", "value": "X (X = MPC@4 ≤ 5 μg/mL)"},
      {"measurement": "AZT MPC4 SHV-5 ec308", "setting": "ec308 SHV-5 [21]", "value": "X (X = MPC@4 ≤ 5 μg/mL)"},
      {"measurement": "BPM MPC1 KP1004 KPC-2", "setting": "KP1004 KPC-2 [22]", "value": "X (X = MPC@1 ≤ 5 μg/mL)"}
    ]}
  ]
}
